Where two headings read alike, the source gives them in different places.
Legend:
[1] = Low pH channel formation after addition of protein to an established planar lipid bilayer; format: biochemical; conditions: for initial current (direction): 450/150 mM KCl cis to trans, pH 4.0, spontaneous (OS); for conductance of initial channel: pH 4.0, initial current; for effect of shifting pH on conductance and selectivity: pH 4.0 to 7.0; for PK/PCl after pH shift to 7.0: pH 7.0 after insertion at pH 4.0; for ion selectivity of channel: low pH insertion
Excerpt: (§1) The Bax and Bcl-2 polypeptides used in the ion channel studies reported herein were recombinant murine Bcl-2 and Bax polypeptides lacking the C-terminal signal-anchor membrane targeting sequence (Bcl-2ΔC21, amino acids 1-218 of SEQ ID NO:9 and BaxΔC19, amino acids 1-173 of SEQ ID NO:6). These deletion derivatives, also referred to herein as BaxΔTM and Bcl-2ΔTM, were used to avoid any interference of the C-terminal signal-anchor membrane targeting sequence with the capacity of internal α helices to mediate insertion into artificial lipid bilayers.
(§2) Planar lipid bilayers were prepared from soybean lipids by chloroform extraction of Azolectin Type II (10-20% choline, 80-90% negatively charged lipids) (Sigma). The chloroform was removed with a stream of nitrogen and the lipids stored under N2 until dissolved in decane at 30 mg/ml. This preparation was then stored under nitrogen. The 0.25 mm orifice of a polystyrene cuvette (Warner Instruments) was pretreated with 2 μl of the decane lipid solution and the solvent allowed to evaporate. The cuvette was then placed into a bilayer chamber and connected to Bilayer Clamp BC525-a (Warner Instruments) by Ag/AgCl electrodes via agar salt bridges. Data were collected using an Axoscope (Axon Instruments Software), archived on video tape using a Neurocorder DR-484 (Neuro Data Instruments), and analyzed using Origin (Microcal) and pClamp6 (Axon Instruments Software). Slope conductance was calculated by the method of least squares and the variance is given. Ion selectivities were calculated using the reversal potential and the Goldman equation. The reversal potential means the zero-current potential of a bilayer membrane. The reversal potential is zero with no ion gradient and the magnitude of the potential in the presence of an ion gradient reflects the cation versus anion selectivity of the bilayer.
Bilayers were formed by spreading with a polished glass rod and allowed to thin to a capacitance of 0.4 μF/cm^2 at which point the noise was typically 0.2 pA and the leak conductance was 20 pS. The salt concentrations were initially 450 mM KCl in the cis chamber (1.0 ml) and 150 mM KCl in the trans chamber (0.5 ml) to permit identification of spontaneous initial currents. Outward (positive) currents were defined as K^+ moving cis-to trans. All solutions were buffered to pH 4.0 with 10 mM K-acetate. BaxΔTM or Bcl-2ΔTM (approx. 1 μg) was added to the cis chamber with mixing. After initial currents were identified the soluble protein was usually removed by exchanging the cis chamber contents with aliquots of buffer.

[2] = cited from earlier work
[3] = Channels in planar lipid bilayers at pH 7.0 after fusion with unilamellar proteoliposomes containing the protein; format: biochemical; conditions: for conductance pattern / ion selectivity of channel / rectification: neutral pH; for ion selectivity of channel: proteoliposome fusion; for rectification: symmetrical KCl
Excerpt: as §1, §2
Proteoliposomes for fusion with a planar lipid bilayer were prepared as follows. Purified protein (0.25 μg) was added to […] lipid (Azolectin) in 20 μl of KCl buffer (150 mM KCl, 10 mM HEPES, pH 7.0). This mixture was placed into a dialysis bag with a molecular weight cutoff of 12 KDa. After 16 hours dialysis in 3000 volumes of 150 mM KCl (10 mM HEPES, pH 7.0) the proteoliposome suspension was removed and placed on ice for immediate use. The bilayer was set up with a 450:150 cis to trans KCl gradient to identify the ion selectivity of the initial currents. Fusion was initiated by adding 5-20 μl of lipid vesicles (only 5-20 ng of protein) to the cis bilayer chamber with mixing. Non-fused proteoliposomes were removed from the compartments and solutions exchanged as described above.
Control bilayers containing Bcl-2 or Bax channels were prepared by fusion of unilamellar proteoliposomes with incorporated Bcl-2ΔTM or BaxΔTM with an established planar bilayer as described in Example 4. Test bilayers containing Bcl-2 channels were prepared in the same manner to which an 11 mer Bax peptide (SEQ ID NO:1) with known death agonist activity was added at 20, 50 or 100 μM. A voltage of 80 mV was applied to each control and test channel and its conductance measured for a period of 12 to 16 seconds and the frequency that each channel was measured at a particular conductance level (pA) was calculated. The data, representing about 500,000 measurements, are shown as histograms in FIGS. 8A-8E. […]

[4] = cited from earlier work; remark: listed apart in the source
[5] = Cl- release (efflux) from KCl loaded synthetic lipid vesicles as a function of pH; format: biochemical
Protocol: This example illustrates that Bax and Bcl-2 induce the release of ions from synthetic lipid vesicles.
Unilamellar vesicles composed of 40% 1,2 dioleoyl phosphatidyl glycerol and 60% 1,2 dioleoyl phosphatidyl choline (Avanti Polar Lipids) were prepared in 100 mM KCl, 2 mM CaNO3 and 10 mM dimethylglutarate, pH 5.0 as previously described (Peterson et al., J. Membr. Biol. 99:197-204, 1987). The resulting liposomes were diluted 200-fold to a concentration of 0.05 mg/ml in 100 mM KNO3, 2 mM CaNO3 and 10 mM dimethylglutarate which was titrated to pH 3.5, 4.0, 4.5, 5.0, 5.5 or 6.0 with NaOH or with acetic acid. BaxΔC19 and Bcl-2ΔC21 were added at a concentration of 500 ng/ml and Cl^- efflux was measured with a Cl^- combination ion selective electrode (Accumet). Triton X-100 (0.1%) was added to release the total encapsulated Cl^- at the times indicated by the arrows in FIG. 1. The total amount of Cl^- released was quantitated by a calibration curve produced by successive additions of 25 μM KCl.

[6] = physiological pH (Antonsson et al.)
[7] = 450/150 mM KCl gradient, pH 7.0
[8] = planar lipid bilayers, pH 7.0 (Antonsson et al.)
[9] = pH 4.0, same quantities of each protein
[10] = stated as behaviour like Bax / Bcl-2 (criterion)

With “Bax: recombinant murine Bax polypeptide lacking the C-terminal signal-anchor membrane targeting sequence (amino acids 1-173 of SEQ ID NO:6)” the “initial current (direction)” value [1] was “initial, inward current”, the “conductance of initial channel” value ([1]; 450/150 mM KCl) was 22 (s.d. 5, n=5) pS and the “conductance of initial channel” value ([1]; 450/150 mM KCl, listed as BaxΔTM) was 22 pS. For the same molecule, the “time to appearance of initial current” value ([1]; 450/150 mM KCl, pH 4.0, listed as BAXΔTM) was no more than 10 min, the “time to appearance of initial current” value ([1]; 450/150 mM KCl, pH 4.0, listed as BaxΔTM) was “Four” and the “duration of channel transition” value ([1]; +40 mV, pH 4.0) was ~ 5 mins. The “current level, C and OS” value ([1]; +40 mV, transition, pH 4.0) was 0 pA, the “current level, O1” value ([1]; +40 mV, transition, pH 4.0) was 2.36 pA and the “current level, O1+2” value ([1]; +40 mV, transition, pH 4.0) was 8.81 pA. For the same molecule, the “current level, O2” value ([1]; +40 mV, transition, pH 4.0) was 6.4 pA, the “current level, C” value ([1]; -40 mV, transition, pH 4.0) was 0 pA and the “current level, O1” value ([1]; -40 mV, transition, pH 4.0) was -10.9 pA. The “current level, O1+2” value ([1]; -40 mV, transition, pH 4.0) was -30.5 pA, the “current level, OS” value ([1]; -40 mV, transition, pH 4.0) was -2.14 pA and the voltage dependence ([1]; hyperpolarization to -40 mV, pH 4.0) was “increased the channel activity”. For the same molecule, the “slope conductance of final stable channel” value ([1]; pH 4.0) was 0.731±0.01 nS, the “PK/PCl (Cl- selectivity, average over current levels)” value ([1]; pH 4.0, from reversal potential) was 0.10 and the “effect of shifting pH on conductance and selectivity” value [1] was “altered the conductance and selectivity of Bax”. The current-voltage relation ([1]; pH 7.0) was “linear with voltage”, the “conductance after pH shift to 7.0” value ([1]; pH 7.0, 450/150 mM KCl gradient) was 0.329±0.002 nS and the “conductance after pH shift to 7.0” value ([1]; pH 7.0, both chambers 150 mM KCl) was 0.302±0.008 nS. The “PK/PCl after pH shift to 7.0” value [1] was 0.5, the “time from initial appearance to channel progression” value ([1]; planar bilayers) was 2 to 4 min and the “ion selectivity of channel” value ([1]; planar bilayers) was “consistent anion selectivity”. The “ion selectivity of channel” value ([1]; planar bilayers, listed as BAX) was “Cl^- selective”, the “pore-forming activity in liposomes” value [2, 6] was “intrinsic pore-forming activity” and the “less frequent conductance peak” value ([3]; 80 mV, no peptide) was “about 65 pA”. The “PK/PCl from reversal potential” value [3, 7] was 0.32, the “initial current (direction)” value [3, 7] was “inward (PK <PCl) current” and the “duration of periodic channel closing” value ([3]; -70 mV, symmetrical 150 mM KCl) was 20 to 30 ms. For the same molecule, the conductance pattern [3] was “simpler single channel conductance pattern”, the “ion selectivity of channel” value [3] was “Cl^- -selective” and the “channel conductance at negative voltages” value ([3]; symmetrical 150 mM KCl, pH 7.0) was 1.5 (sd 0.3, n=3) nS. The rectification [3] was “Mild outward rectification”, the ion selectivity [4, 8] was “cation selective” and the “permeability ratio of Na+ to Cl-” value [4, 8] was “about 2.1”. For the same molecule, the ion selectivity ([4]; planar lipid bilayers, pH 7.0 (Antonsson et al.), listed as BaxΔTM) was “slightly cation selective”, the “highest pH with retained activity (ion release from liposomes)” value [5] was no more than 5.5 pH and the “pH of maximum release of Cl-” value ([5]; 500 ng/ml, FIG. 1A) was 4.0-4.5 pH. For the same molecule, the “Cl- release from KCl loaded lipid vesicles” value ([5]; pH 3.5) was 41%, the “release of Cl-, decrease from maximum” value ([5]; pH 3.5, 500 ng/ml, FIG. 1A) was 50% and the “Cl- release from KCl loaded lipid vesicles” value [5, 9] was 75%. For the same molecule, the “Cl- release from KCl loaded lipid vesicles” value ([5]; pH 5.0) was 41%, the “release of Cl-, decrease from maximum” value ([5]; pH 5.0, 500 ng/ml, FIG. 1A) was 50% and the “release of Cl-, decrease from maximum” value ([5]; pH 5.5, 500 ng/ml, FIG. 1A) was “less than 10%”. For the same molecule, the “release of Cl- on pH shift” value ([5]; pH 6.0 shifted to pH 4.0, FIG. 1C) was “a rapid release of Cl^-” and the “ratio of channel indicator release at pH 3.5 and pH 4.0 (R3.5/4.0)” value [5, 10] was “less than 1”.

B1: Bcl-2: recombinant murine Bcl-2 polypeptide lacking the C-terminal signal-anchor membrane targeting sequence (amino acids 1-218 of SEQ ID NO:9) (protein)
chain: MAQAGRTGYDNREIVMKYIHYKLSQRGYEWDAGDADAAPLGAAPTPGIFSFQPESNPMPAVHREMAARTSPLRPLVATAGPALSPVPPCVHLTLRRAGDDFSRRYRRDFAEMSSQLHLTPFTARGRFATVVEELFRDGVNWGRIVAFFEFGGVMCVESVNREMSPLVDNIALWMTEYLNRHLHTWIQDNGGWDAFVELYGPSMRPLFDFSWLSLKTLL
With B1 the “initial current (direction)” value [1] was “initial outward”, the “PK/PCl of initial current” value ([1]; 450/150 mM KCl, pH 4.0) was 3.9 and the “magnitude of initial current” value ([1]; 450/150 mM KCl, pH 4.0) was 0.85±0.06 pA. For the same molecule, the “time to appearance of initial current” value ([1]; 450/150 mM KCl, pH 4.0) was no more than 5 min, the “conductance of initial channel” value ([1]; 450/150 mM KCl) was 80.3±0.06 pS and the “conductance of initial channel” value ([1]; 450/150 mM KCl, listed as Bcl-2ΔTM) was 80 pS. For the same molecule, the “duration of initial state” value ([1]; pH 4.0) was 2 to 5 min, the “slope conductance of final stable channel” value ([1]; pH 4.0) was 1.90±0.06 nS and the “duration of channel open periods” value ([1]; pH 4.0, with brief closures) was 5 to 10 s. The “effect of shifting pH on conductance and selectivity” value [1] was “not Bcl-2”, the “PK/PCl after pH shift to 7.0” value [1] was 6.5 and the “conductance of large pore after pH shift to 7.0” value ([1]; pH shifted to 7.0, FIG. 4E) was 2.14±0.04 nS. For the same molecule, the “ion selectivity of channel” value ([1]; planar bilayers) was “mild cation selectivity”, the “pore forming activity in lipid vesicles” value ([2]; pH above 5.5) was “little or no detectable pore forming activity” and the “insertion into synthetic lipid vesicles” value ([2]; pH values below 5.5) was “insert into synthetic lipid vesicles at pH values below 5.5”. The “antagonism of BaxΔTM pore-forming activity in liposomes” value [2, 6] was “antagonized”, the single channel current ([3]; 450/150 mM KCl gradient, FIG. 5A) was 5 pA and the “PK/PCl from reversal potential” value [3, 7] was 2.4. The “initial current (direction)” value [3, 7] was “outward (K^+) current”, the conductance pattern [3] was “complex multichannel conductance pattern” and the “ion selectivity of channel” value [3] was “K^+ -selective”. The “voltage dependence of open channel current” value ([3]; symmetrical 150 mM KCl) was “linear”, the “hyperpolarization beyond which a channel closure occurs” value ([3]; symmetrical 150 mM KCl, FIG. 5C) was “more than -70 mV” and the slope conductance ([3]; symmetrical 150 mM KCl, pH 7.0) was 1.08 (s.d. 0.10, n=5) nS. The rectification [3] was “no rectification”, the primary channel conductance ([4]; lipid bilayers, physiological pH (Schendel et al.)) was 18±2 pS and the ion selectivity ([4]; pH 5.4 (Schendel et al.)) was “cation selective”. For the same molecule, the multiple conductance states ([4]; planar lipid bilayers, physiological pH) was “multiple channel conductance states”, the “inactivation of Cl- release” value ([5]; by pH 5.0, 500 ng/ml, FIG. 1B) was “complete inactivation” and the “Cl- release from KCl loaded lipid vesicles” value ([5]; pH 3.5) was 81%. The “relative activity of Bcl-2 versus Bax (Cl- release)” value ([5]; pH 3.5) was “twice as active as Bax”, the “Cl- release from KCl loaded lipid vesicles” value [5, 9] was 75% and the “Cl- release from KCl loaded lipid vesicles” value ([5]; pH 5.0) was 7%. The “release of Cl- on pH shift” value ([5]; pH 5.0 shifted to 4.0, FIG. 1D) was “activated the release of Cl^-”, the “ratio of channel indicator release at pH 3.5 and pH 4.0 (R3.5/4.0)” value [5, 10] was “about 1.0” and the “ratio of indicator release at pH 4.0 and 5.0 (R4.0/5.0)” value [5, 10] was “greater than 7.0”.

From patent publication US6165732A, “Method for identifying apoptosis modulating compounds” (Washington University, priority 1998, dated 2000)
